Test results taken from paper PMC9024523, “Phenoxyaromatic Acid Analogues as Novel Radiotherapy Sensitizers: Design, Synthesis and Biological Evaluation” (Molecules, 2022).
Several values for one entry are separate records, joined by “and”; a condition that tells them apart may be missing. Equal entries are not always repeated.

System: mouse red blood cells
Experiment: In vitro red blood cell-based assay (oxygen equilibrium curve, Softron analyzer)
Details: final effector concentration 2 mM, mean ± SD; for P50/P50C: P50C = control with 1% DMSO; for P50: 1% DMSO; for P50 / ∆P50: mouse red blood cells; for ∆P50: ∆P50 = P50 − P50C
Description: In the first stage of our research, three series of analogues were designed and synthesized to explore refinement of the hydrophobic parts of 19f, 19m, 24a and 24b; hinge areas of 18g, 19b and 19y; and tail regions of 15c, 15d and 16c, respectively. We used the Softron Analyzer to evaluate the effect of these compounds on the half-blood oxygen saturation(P50) value of red blood cells. The most promising phenoxyaromatic acid compound, efaproxiral, was used as a positive control. […] The results reminded us that the modification of the hydrophobic part or linker extension is beneficial to improve an allosteric effect.
Eight-week-old female C57BL6J mice were purchased from Beijing Vital River Laboratory Animal Technology Co., Ltd. A total of 540 μL mouse blood was added into the 1.5 mL centrifuge tube, followed by adding 60 μL 3.8% sodium citrate. The mixture was then centrifuged at 1500 rpm for 10 min, the supernatant was carefully aspirated, and the cells were washed three times with PBS solution. After mixing packed red blood cells with Alsever’s solution in a ratio of 1:1, a blood gas analyzer (RADIOMETER ABL 90) was used to analyze the red blood cell density and hemoglobin concentration.
All of the compounds were prepared as 200 mM stock solutions in DMSO. Oxygen equilibrium measurements were performed with the Softron analyzer (Softron Medical Products, Beijing, China) using mouse red blood cells. The samples were prepared by adding 3 mg hemoglobin equivalent of red blood cells into 3.92 mL loading buffer (100 mM NaCl, 50 mM bis-Tris at pH 7.2 and 25 °C), followed by 20 μL 10% Dimethicone as a defoamer and 20 μL 20% BSA. Afterwards, 40 μL stock solution was added, and the mixture was loaded to the sample cell and fully deoxygenated by blowing into nitrogen at 37 °C for 15 min. Then, the oxygen equilibrium curve was recorded by blowing into oxygen.

Row | Molecule | P50/P50C | P50 [mmHg] | ∆P50 | K (Hill coefficient of the oxygen dissociation curve at 50% saturation)
1 | Cc1cc(C)cc(NC(=O)Cc2ccc(OCCCC(=O)O)cc2)c1 [16a, 4-(4-(2-((3,5-dimethylphenyl)amino)-2-oxoethyl)phenoxy)butanoic acid] | 1.18 ± 0.04 | 53.49 ± 1.85 | 8.25 ± 1.85 mmHg | –
2 | CC(C)(Oc1ccc(CC(=O)Nc2cc(Br)cc(Br)c2)cc1)C(=O)O [19h, 2-(4-(2-((3,5-dibromophenyl)amino)-2-oxoethyl)phenoxy)-2-methylpropanoic acid] | 1.87 ± 0.03 | 68.71 ± 1.18 | 31.90 ± 1.18 mmHg | –
3 | CC(C)(Oc1ccc(CC(=O)Nc2ccc3c(c2)OCO3)cc1)C(=O)O [24c, 2-(4-(2-(benzo[d][1,3]dioxol-5-ylamino)-2-oxoethyl)phenoxy)-2-methylpropanoic acid] | 1.58 ± 0.01 | 69.62 ± 12.16 | 25.61 ± 4.27 mmHg | –
4 | CC(C)(Oc1ccc(CC(=O)N(Cc2ccccc2)Cc2ccccc2)cc1)C(=O)O [24f, 2-(4-(2-(dibenzylamino)-2-oxoethyl)phenoxy)-2-methylpropanoic acid] | 1.23 ± 0.12 | 54.51 ± 14.91 | 10.51 ± 7.02 mmHg | –
5 | C#Cc1cccc(NCCc2ccc(OC(C)(C)C(=O)O)cc2)c1 [18d, 2-(4-(2-((3-ethynylphenyl)amino)ethyl)phenoxy)-2-methylpropanoic acid] | 1.15 ± 0.05 | 52.25 ± 2.32 | 7.01 ± 2.32 mmHg | –
6 | COc1ccc(NC(=O)Cc2ccc(OC(C)(C)C(=O)O)cc2)cc1 [19s, 2-(4-(2-((4-methoxyphenyl)amino)-2-oxoethyl)phenoxy)-2-methylpropanoic acid] | 1.45 ± 0.01 | 71.87 ± 0.64 | 22.29 ± 0.64 mmHg | –
7 | CC(C)(Oc1ccc(/C=C/C(=O)Nc2cc(Cl)cc(Br)c2)cc1)C(=O)O [19w, (E)-2-(4-(3-((3-bromo-5-chlorophenyl)amino)-3-oxoprop-1-en-1-yl)phenoxy)-2-methylpropanoic acid] | 1.50 ± 0.08 | 56.76 ± 2.93 | 18.85 ± 2.93 mmHg | –
8 | Cc1cc(C)cc(NC(=O)CCCc2ccc(OC(C)(C)C(=O)O)cc2)c1 [19d, 2-(4-(4-((3,5-dimethylphenyl)amino)-4-oxobutyl)phenoxy)-2-methylpropanoic acid] | 1.60 ± 0.02 | 67.93 ± 8.80 | 25.43 ± 3.71 mmHg | –
9 | C=CCN(CC=C)C(=O)Cc1ccc(OC(C)(C)C(=O)O)cc1 [24a, 2-(4-(2-(diallylamino)-2-oxoethyl)phenoxy)-2-methylpropanoic acid] | 1.25 ± 0.21 | 55.80 ± 18.99 | 11.80 ± 11.11 mmHg | –
10 | CNC(=O)Cc1ccc(OC(C)(C)C(=O)O)cc1 [24h, 2-methyl-2-(4-(2-(methylamino)-2-oxoethyl)phenoxy)propanoic acid] | 1.40 ± 0.11 | 58.11 ± 1.93 | 16.27 ± 2.88 mmHg | –
11 | CC(C)(Oc1ccc(CC(=O)Nc2ccc3ccccc3c2)cc1)C(=O)O [24d, 2-methyl-2-(4-(2-(naphthalen-2-ylamino)-2-oxoethyl)phenoxy)propanoic acid] | 1.93 ± 0.01 | 79.50 ± 0.47 | 38.31 mmHg and 38.31 ± 0.47 mmHg | –
12 | Cc1cc(C)cc(NC(=O)c2ccc(OC(C)(C)C(=O)O)cc2)c1 [19b, 2-(4-((3,5-dimethylphenyl)carbamoyl)phenoxy)-2-methylpropanoic acid] | 1.04 ± 0.05 | 43.01 ± 2.18 | 1.82 ± 2.18 mmHg | –
13 | COC(=O)C(C)(C)Oc1ccc(CC(=O)Nc2cc(C)cc(C)c2)cc1 [15c, Methyl2-(4-(2-((3,5-dimethylphenyl)amino)-2-oxoethyl)phenoxy)-2methylpropanoate] | 0.96 ± 0.26 | 43.28 ± 11.71 | −1.96 ± 11.71 mmHg | –
14 | (E)-2-(4-(3-((3-iodophenyl)amino)-3-oxoprop-1-en-1-yl)phenoxy)-2-methylpropanoic acid [19v] | 1.71 ± 0.05 | 77.49 ± 2.11 | 32.25 ± 2.11 mmHg | 2.23 ± 0.28
15 | CSc1cccc(NC(=O)Cc2ccc(OC(C)(C)C(=O)O)cc2)c1 [19m-1, 2-methyl-2-(4-(2-((3-(methylthio)phenyl)amino)-2-oxoethyl)phenoxy)propanoic acid] | 1.81 ± 0.02 | 81.67 ± 0.95 | 36.43 mmHg and 36.43 ± 0.95 mmHg | –
16 | CSc1ccc(NC(=O)Cc2ccc(OC(C)(C)C(=O)O)cc2)cc1 [19m, 2-methyl-2-(4-(2-((4-(methylthio)phenyl)amino)-2-oxoethyl)phenoxy)propanoic acid] | 1.80 ± 0.02 | 74.24 ± 0.69 | 33.05 mmHg and 33.05 ± 0.69 mmHg | –
17 | CC(C)(Oc1ccc(CC(=O)Nc2ccccc2Br)cc1)C(=O)O [19k, 2-(4-(2-((2-bromophenyl)amino)-2-oxoethyl)phenoxy)-2-methylpropanoic acid] | 1.34 ± 0.29 | 49.17 ± 10.7 | 12.36 ± 10.79 mmHg | –
18 | C#Cc1cccc(NC(=O)Cc2ccc(OC(C)(C)C(=O)O)cc2)c1 [19n-1, 2-(4-(2-((3-ethynylphenyl)amino)-2-oxoethyl)phenoxy)-2-methylpropanoic acid] | 1.79 ± 0.04 | 80.97 ± 1.77 | 38.73 mmHg and 38.73 ± 2.47 mmHg | –
19 | C#Cc1ccc(NC(=O)Cc2ccc(OC(C)(C)C(=O)O)cc2)cc1 [19n, 2-(4-(2-((4-ethynylphenyl)amino)-2-oxoethyl)phenoxy)-2-methylpropanoic acid] | 1.46 ± 0.02 | 60.34 ± 0.70 | 19.15 mmHg and 19.15 ± 0.70 mmHg | –
20 | 2-methyl-2-(4-(2-(naphthalen-2-ylamino)ethyl)phenoxy)propanoic acid [18f] | 1.72 ± 0.03 | 79.24 ± 1.61 | 33.13 ± 1.61 mmHg | 1.89 ± 0.13
21 | Cc1cc(C)cc(NCCCc2ccc(OC(C)(C)C(=O)O)cc2)c1 [18a, 2-(4-(3-((3,5-dimethylphenyl)amino)propyl)phenoxy)-2-methylpropanoic acid] | 1.41 ± 0.03 | 77.19 ± 5.93 | 22.54 ± 2.74 mmHg | –
22 | CSc1cccc(NCCc2ccc(OC(C)(C)C(=O)O)cc2)c1 [18c, 2-methyl-2-(4-(2-((3-(methylthio)phenyl)amino)ethyl)phenoxy)propanoic acid] | 1.28 ± 0.07 | 48.61 ± 4.43 | 10.7 ± 2.95 mmHg | –
23 | CCOC(=O)CCCOc1ccc(CC(=O)Nc2cc(C)cc(C)c2)cc1 [15a, Ethyl 4-(4-(2-((3,5-dimethylphenyl)amino)-2-oxoethyl)phenoxy)butanoate] | 0.96 ± 0.25 | 43.55 ± 11.21 | −1.70 ± 11.21 mmHg | –
24 | CC(C)(Oc1ccc(CC(=O)Nc2cc(Cl)cc(Br)c2)cc1)C(=O)O [19j, 2-(4-(2-((3-. bromo-5-chlorophenyl)amino)-2-oxoethyl)phenoxy)-2-methylpropanoic acid] | 1.82 ± 0.02 | 82.35 ± 0.80 | 37.11 ± 0.80 mmHg | –
25 | Cc1cc(C)cc(NCCc2ccc(OC(C)(C)C(=O)O)cc2)c1 [18g, 2-(4-(2-((3,5-dimethylphenyl)amino)ethyl)phenoxy)-2-methylpropanoic acid] | 1.86 ± 0.05 | 77.54 ± 6.96 | 35.71 mmHg and 35.71 ± 2.14 mmHg | –
26 | CC(C)(Oc1ccc(CC(=O)Nc2ccc(C#N)cc2)cc1)C(=O)O [19q, 2-(4-(2-((4-cyanophenyl)amino)-2-oxoethyl)phenoxy)-2-methylpropanoic acid] | 1.32 ± 0.30 | 59.60 ± 13.58 | 14.36 ± 13.58 mmHg | –
27 | CC(C)(Oc1ccc(CC(=O)Nc2cccc(-c3ccccc3)c2)cc1)C(=O)O [19p, 2-(4-(2-([1,1′-biphenyl]-3-ylamino)-2-oxoethyl)phenoxy)-2-methylpropanoic acid] | 1.87 ± 0.02 | 77.10 ± 0.66 | 35.91 mmHg and 35.91 ± 0.66 mmHg | –
28 | (E)-2-(4-(3-((4-bromophenyl)amino)-3-oxoprop-1-en-1-yl)phenoxy)-2-methylpropanoic acid [19u] | 1.67 ± 0.09 | 63.15 ± 3.48 | 25.24 ± 3.48 mmHg | 1.96 ± 0.17
29 | CC1Cc2ccccc2N1C(=O)Cc1ccc(OC(C)(C)C(=O)O)cc1 (stereo not drawn) [24b, 2-methyl-2-(4-(2-(2-methylindolin-1-yl)-2-oxoethyl)phenoxy)propanoic acid] | 1.46 ± 0.12 | 66.26 ± 5.30 | 21.02 ± 5.30 mmHg | –
